In this experiment the test system is T1, Aspergillus niger NRC114 α-galactosidase.
T1 construct: gene aglB; native secreted enzyme purified from culture filtrate (ammonium sulfate, Sephadex G-100, DEAE-Sephadex A-50); 64 kDa monomer by SDS-PAGE
As to the kind of experiment: p-nitrophenol release, absorbance; Lineweaver-Burk plot. Particulars: pH 3.5, 60 °C; substrate range printed as 0.04–0.8 µM; printed unit doubtful (probably mM: compared with mM literature values, assay stock 4 mM). The format is biochemical.

Molecules are shown by their SMILES.

The source of these data is publication PMC9887927, “Biochemical characterization and insights into the potency of the acidic Aspergillus niger NRC114 purified α-galactosidase in removing raffinose family oligosaccharides from soymilk yogurt” (BMC Biotechnology, 2023).

As usually defined, the Km is the concentration of substrate that gives half-maximal velocity.

For `O=[N+]([O-])c1ccc(O[C@H]2O[C@H](CO)[C@H](O)[C@H](O)[C@H]2O)cc1` [p-nitrophenyl-α-D-galactopyranoside], the Km amounted to 0.000401 mM.
